Laboratory results from patent US10188706B2, “Plasminogen activator mutants as anti-fibrinolytic agents” (HADASIT MEDICAL RESEARCH SERVICES & DEVELOPMENT LIMITED, priority 2012, dated 2019).
Entries after “also recorded” stand apart in the source; their conditions may differ.

Legend:
[1] = target: T1, uPA (Homo sapiens, UniProt P00749); experiment: Plasminogen activator activity, chromogenic assay without fibrin, activation by uPA; assay type: biochemical; settings: plasminogen 500 nM, uPA 20 nM; mutants 100 nM or TA 200 nM alone; FIG. 2D
T1 construct: Single-chain urokinase (uPA) was purified, characterized as previously reported; made in house
Protocol: Plasminogen Activator Activity
Plasminogen activator activity was determined by adding tPA (50 nM) or uPA (20 nM), to a reaction mixture containing Glu-plasminogen and the plasmin chromogenic substrate Spectrazyme PL (100 μM) in phosphate-buffered saline (PBS) at 37° C., and the light absorbance at 405 nm was measured continuously over time. The initial velocities of plasmin generation at the different conditions were calculated from the change in the A405 nm over time. The initial velocity of the reaction at each plasminogen concentration was obtained by calculating the change in the rate of A405 over different time intervals and the results were expressed as the change in optical density (ΔOD) per minute, which represents the slope of the initial velocity of plasminogen activation (Higazi A et al., J Biol Chem. (1995), 270(29):17375-80).

[2] = system: patients undergoing elective surgery; settings: 53 studies, 3836 participants (Ker K. et al. 2012); cited from earlier work
[3] = system: trauma patients; settings: early administration of a short course (Ker K. ibid.); cited from earlier work
[4] = system: mice treated with Coumadin and subjected to CHI; experiment: Closed head injury (CHI) in mice anticoagulated with warfarin (Coumadin); assay type: in vivo, mouse; settings: for extent of ICH post CHI after anticoagulation: warfarin prior to CHI
Description: (§1) Closed Head Injury (CHI) Model
(§2) Head trauma was induced by using a modified weight-drop device, as previously described (Chen Y. et al. (1996) J. Neurotrauma, 13:557-568). Briefly, after induction of ether anesthesia, a midline longitudinal incision was made, the skin was retracted and the skull was exposed. The left anterior frontal area was identified and a Teflon tipped cone (2-mm diameter) was placed 1 mm lateral to the midline, in the midcoronal plane. The head was held in place manually and a 75-g weight was dropped on the cone from a height of 18 cm, resulting in focal injury to the left hemisphere. After trauma, the mice received supporting oxygenation with 95% 02 for no longer than 2 min and were then returned to their cages. In sham controls only anesthesia and skin incision were carried out.

[5] = system: WT mice subjected to CHI; experiment: Closed head injury (CHI) model of TBI in WT mice; assay type: in vivo, mouse; settings: WT mice, IV immediately after or 2 hrs after CHI, Hgb at 2 or 8 hrs, MRI at 24 hrs
Protocol: Eight to twelve weeks old C57 mice obtained from Harlan, Israel. Mice were administered standard laboratory chow and water ad libitum, and kept in controlled temperature and light conditions. Animal experiments were carried out according to the guidelines of the Hebrew University-Institutional Committee for Care and Use of Laboratory Animals, and with the committee's approval.
as §1, §2

[6] = system: tPA-/- and uPA-/- mice subjected to CHI; experiment: Closed head injury (CHI) model in tPA-/- and uPA-/- mice; assay type: in vivo, mouse; settings: 5 mg/kg each
Description: as §1, §2

In the case of `NC[C@H]1CC[C@H](C(=O)O)CC1` [TA, tranexamic acid, reference compound], the “plasminogen activation by uPA in the absence of fibrin (change in OD per minute)” value [1] is given as “dramatically stimulated; also recorded: mimics the effect of fibrin only in the case of uPA”, the “need for blood transfusion” value [2] is given as “reduced the need for blood transfusion by a third” and the “death, vascular occlusive events and frequency of blood transfusions” value [3] is given as “reduced death, vascular occlusive events and the frequency of blood transfusions”.

With `CC(=O)CC(c1ccccc1)c1c(O)c2ccccc2oc1=O` (stereo not drawn) [warfarin] the “extent of ICH post CHI after anticoagulation” value ([4]; WT mice) was “increased the extent of ICH”, the “mean INR at the time of trauma” value ([4]; mice anticoagulated with warfarin prior to CHI) was 2.5 and the “extent of ICH post CHI after anticoagulation” value ([4]; tPA-/- or uPA-/- mice) was “had no such effect”.

With “WT-tPA: wild type tissue plasminogen activator; recombinant tPA from Genentech” the “intracerebral hemorrhage (MRI, extravasation of Hgb) post CHI” value [5] was “increased the extent of intracerebral hemorrhage”, the “intracerebral hemorrhage (MRI, extravasation of Hgb) post CHI” value ([5]; listed as WT tPA) was “exacerbated” and the “injury phenotype (ICH) of knock-out mice after exogenous plasminogen activator” value [6] was “rescued”.
